“And” between values parts separate entries of the source, which are not always exact repeats. Equal entries are not always repeated. Where two headings read alike, the source gives them in different places.
Experiments:
Assay type in all cases: biochemical
[1] = target: T1, Sirt3 (Homo sapiens, UniProt Q9NTG7); experiment: Fluorescence-based ZMAL deacetylase activity assay, Sirt3; parameters: key to Sirt3 inhibition Δ (class) / Sirt3 inhibition PSS [365 nm] (class): n.i.: no inhibition detected (<30 % @ 100 μM); u.i.: unspecific interactions
T1 construct: Expression and purification of Sirt1_133−747, Sirt2_56−356, and Sirt3_118−395 was carried out as described previously; made in house
T1 sequence (Q9NTG7 118-395): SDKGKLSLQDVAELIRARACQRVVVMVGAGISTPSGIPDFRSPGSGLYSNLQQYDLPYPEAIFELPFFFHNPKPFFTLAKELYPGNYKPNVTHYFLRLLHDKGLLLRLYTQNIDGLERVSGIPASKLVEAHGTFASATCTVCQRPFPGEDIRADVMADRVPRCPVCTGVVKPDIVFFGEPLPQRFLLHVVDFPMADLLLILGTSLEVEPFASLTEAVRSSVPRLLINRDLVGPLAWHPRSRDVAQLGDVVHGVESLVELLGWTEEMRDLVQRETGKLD
Description: (§1) The effect of the compounds on deacetylase activity of three human sirtuin isotypes (Sirt1–3) was investigated by a homogeneous fluorescence‐based assay, using (Z)‐Lys(acetyl)‐AMC (ZMAL) as substrate. In order to determine the impact of photoisomerization, the respective compounds were irradiated (365 nm, 5 min) in DMSO prior to incubation in the enzyme assay mixture. The results of the irradiated probes were finally compared to non‐irradiated measurements.
(§2) Cloning, expression and purification of recombinant proteins: Expression and purification of Sirt1_133−747, Sirt2_56−356, and Sirt3_118−395 was carried out as described previously.27 Identity and purity were verified by SDS‐PAGE.
(§3) Fluorescence‐based activity assay: The inhibitory effect of compounds on Sirt1–3 was detected via a previously reported fluorescence‐based assay.29 The synthetic substrate (Z)‐Lys(acetyl)‐AMC (ZMAL) is deacetylated by sirtuins, followed by tryptic digestion and thereby release of 7‐aminomethylcoumarin, leading to a fluorescent readout. Inhibition was determined by comparing percentage substrate conversion to a DMSO control after subtraction of the blank fluorescence signal. All compounds were tested at 100 or 50 μM and 10 μM respectively. […] IC50 values were calculated with OriginPro 9.0 G using a non‐linear regression to fit the dose response curve (Figure S6). An enzyme‐free blank control and a 100 % conversion control using AMC instead of ZMAL were measured as well. Inhibition measurements were performed in biological duplicates for all compounds. […]
(§4) Fluorescence-Based Activity Assay (ZMAL-Assay)
(§5) The influence of the synthesized compounds on the deacetylase activity of the class I sirtuins Sirt1–3 was determined in a homogenous fluorescence-based enzyme assay, using the artificial substrate Z-(Ac)Lys-AMC (ZMAL). ZMAL is processed by sirtuins yielding Z-Lys-AMC.
(§6) The latter is subsequently cleaved by tryptic digestion, releasing 7-amino-4-methylcoumarin (AMC), excitation of which leads to a fluorescent read out (λex=390 nm; λem=460 nm). Instead, […]
(§7) contribute to the fluorescence signal. Therefore, the fluorescence intensity is proportional to the activity of the respective sirtuin.
(§8) After subtraction of the blank fluorescence signal (without enzyme) from the signal of the respective probe, the residual signal intensity is related to a 100 % conversion control (AMC), […]
(§9) yielding the percentage substrate conversion. Comparison of the determined substrate conversion with a no-inhibition DMSO control yields the percentage inhibition at the respective […]
(§10) For determination of IC50, inhibitory activity of the respective compound was determined at 8 to 10 distinct concentrations. The measured values were analysed by a non-linear fit to the dose-response curve using a four parameter logistic model (Figure S6):
(§11) Figure S6: Non-linear regression of the dose-response curves of compounds 15c and 15f at the thermal equilibrium (∆, black) and after 5 minutes of 365 nm irradiation (red). […]
(§12) A maximal polarization control using just DMSO and a minimal polarization control using 1 µL of the 400 µM solution of 22 instead of inhibitor were performed as well as a blank control containing 1 µL of DMSO in 19 µL assay buffer. The mixture was incubated 10 min at 37 °C

[2] = target: T2, Sirt2 (Homo sapiens, UniProt Q8IXJ6); experiment: Fluorescence-based ZMAL deacetylase activity assay, Sirt2; details: for decrease of Sirt2 inhibition upon 365 nm irradiation (factor): PSS 365 nm versus thermal equilibrium
T2 construct: Expression and purification of Sirt1_133−747, Sirt2_56−356, and Sirt3_118−395 was carried out as described previously; made in house
T2 sequence (Q8IXJ6 56-356): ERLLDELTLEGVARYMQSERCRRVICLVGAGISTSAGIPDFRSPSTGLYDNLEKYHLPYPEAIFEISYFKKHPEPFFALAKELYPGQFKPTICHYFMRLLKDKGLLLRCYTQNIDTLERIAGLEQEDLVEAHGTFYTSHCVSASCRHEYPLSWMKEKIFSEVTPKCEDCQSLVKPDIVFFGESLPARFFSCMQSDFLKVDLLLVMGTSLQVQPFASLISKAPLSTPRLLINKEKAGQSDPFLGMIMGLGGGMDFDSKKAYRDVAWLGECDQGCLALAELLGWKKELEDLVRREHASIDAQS
Description: as §1, §2, §3, §4, §5, §6, §7, §8, §9, §10, §11, §12

[3] = target: T3, Sirt1 (Homo sapiens, UniProt Q96EB6); experiment: Fluorescence-based ZMAL deacetylase activity assay, Sirt1
T3 construct: Expression and purification of Sirt1_133−747, Sirt2_56−356, and Sirt3_118−395 was carried out as described previously; made in house
T3 sequence (Q96EB6 133-747): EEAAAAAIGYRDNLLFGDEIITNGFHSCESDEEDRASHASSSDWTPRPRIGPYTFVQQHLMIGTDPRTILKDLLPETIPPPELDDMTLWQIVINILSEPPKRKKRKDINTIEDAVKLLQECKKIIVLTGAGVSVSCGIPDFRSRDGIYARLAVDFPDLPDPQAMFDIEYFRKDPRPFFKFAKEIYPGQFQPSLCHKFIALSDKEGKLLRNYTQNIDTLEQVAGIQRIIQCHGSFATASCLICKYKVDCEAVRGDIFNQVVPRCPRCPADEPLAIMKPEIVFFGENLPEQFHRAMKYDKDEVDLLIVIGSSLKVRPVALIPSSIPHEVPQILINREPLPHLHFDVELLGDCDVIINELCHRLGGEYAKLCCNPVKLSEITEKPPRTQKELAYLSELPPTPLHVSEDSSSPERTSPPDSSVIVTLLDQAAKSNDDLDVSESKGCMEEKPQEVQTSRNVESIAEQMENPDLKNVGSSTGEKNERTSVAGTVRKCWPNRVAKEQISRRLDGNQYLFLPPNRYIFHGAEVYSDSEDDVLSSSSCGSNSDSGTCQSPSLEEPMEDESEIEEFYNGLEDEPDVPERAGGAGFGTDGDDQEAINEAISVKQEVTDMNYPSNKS
Description: as §1, §2, §3, §4, §5, §6, §7, §8, §9, §10, §11
A maximal polarization control using just DMSO and a minimal polarization control using 1 µL of the 400 µM solution of 22 instead of inhibitor were performed as well as a blank control containing 1 µL of DMSO in 19 µL assay buffer. The mixture was incubated 10 min at 37 °C […]
(1 picture or pasted object on this page, not shown here)

[4] = PSS after 5 min UV irradiation (365 nm), read-out: Sirt2 inhibition PSS [365 nm], IC50
[5] = thermal equilibrium (Δ), read-out: Sirt2 inhibition Δ, IC50
[6] = @ 100 μM, PSS after 5 min UV irradiation (365 nm), read-out: Sirt1 inhibition PSS [365 nm], percent inhibition
[7] = thermal equilibrium (Δ), read-out: Sirt1 inhibition Δ (class)
[8] = PSS after 5 min UV irradiation (365 nm)
[9] = PSS after 5 min UV irradiation (365 nm), read-out: Sirt2 inhibition PSS [365 nm], percent inhibition (converted)
[10] = thermal equilibrium (Δ), read-out: Sirt2 inhibition Δ, percent inhibition (converted)
[11] = PSS after 5 min UV irradiation (365 nm), read-out: Sirt1 inhibition PSS [365 nm] (class)
[12] = PSS after 5 min UV irradiation (365 nm), read-out: Sirt3 inhibition PSS [365 nm], percent inhibition
[13] = thermal equilibrium (Δ), read-out: Sirt3 inhibition Δ, percent inhibition

SMILES | IC50 [2, 4] | IC50 [2, 5] | inhibition at 100 µM [3, 7] | inhibition at 100 µM [3, 11] | inhibition at 10 µM [1, 12] | inhibition at 10 µM [1, 13] | also measured
Cc1cc(/N=N/c2cncc(C(N)=O)c2)cc(C)c1N [7 f] |  |  |  |  |  |  | IC50 ([1]; non-irradiated, read-out: Sirt3 inhibition, IC50): 9 µM and 9.4 µM; IC50 ([2]; non-irradiated, read-out: Sirt2 inhibition, IC50): 6 µM and 5.8 µM; inhibition at 100 µM ([3]; @ 100 μM, non-irradiated, read-out: Sirt1 inhibition, percent inhibition relative to controls): 47%
NC(=O)c1cncc(/N=N/c2ccc(Br)cc2)c1 [15 d] | 8.4 ± 0.9 µM | 7.5 ± 0.5 µM | < 30% |  |  |  | IC50 ([1]; PSS after 5 min UV irradiation (365 nm), read-out: Sirt3 inhibition PSS [365 nm], IC50): 13 ± 2.2 µM; IC50 ([1]; thermal equilibrium (Δ), read-out: Sirt3 inhibition Δ, IC50): 8.2 ± 1.4 µM; inhibition at 100 µM [3, 6]: 47%
CCCCCCCCCCCC(=O)Nc1c(C)cc(/N=N/c2cncc(C(N)=O)c2)cc1C [9 f] |  |  | < 30% | < 30% |  |  | Sirt3 inhibition PSS [365 nm] (class) [1, 8]: u.i.; Sirt3 inhibition Δ (class) ([1]; thermal equilibrium (Δ)): u.i.; inhibition at 10 µM [2, 9]: 65%; inhibition at 10 µM [2, 10]: 46%
NC(=O)c1cncc(/N=N/c2ccc(C#CCCCCO)cc2)c1 [15 g] | 11.8 ± 1 µM | 7.2 ± 0.5 µM |  |  | 22% | 64% | decrease of Sirt2 inhibition upon 365 nm irradiation (factor) [2]: 1.6 fold; inhibition at 100 µM [3, 6]: 54%; inhibition at 100 µM ([3]; @ 100 μM, thermal equilibrium (Δ), read-out: Sirt1 inhibition Δ, percent inhibition): 60%
NC(=O)c1cncc(/N=N/c2c(O)ccc3ccccc23)c1 [7 c] |  |  |  |  |  |  | inhibition at 10 µM ([1]; non-irradiated, read-out: Sirt3 inhibition, percent inhibition relative to controls): 64%; inhibition at 10 µM ([2]; non-irradiated, read-out: Sirt2 inhibition, percent inhibition relative to controls): 55%; Sirt1 inhibition (class) ([3]; non-irradiated): n.i. (n.i.: no inhibition detected (<30 % @ 100 μM))
CCCCNC(=O)c1ccc(/N=N/c2cncc(C(N)=O)c2)cc1 [15 e] |  |  | < 30% |  | 49% | 54% | inhibition at 10 µM [2, 9]: 61%; inhibition at 10 µM [2, 10]: 51%; inhibition at 10 µM ([3]; @ 10 μM, PSS after 5 min UV irradiation (365 nm), read-out: Sirt1 inhibition PSS [365 nm], percent inhibition): 10%
CCCCCCCCCCCCCC(=O)Nc1c(C)cc(/N=N/c2cncc(C(N)=O)c2)cc1C [9 g] | 0.9 ± 0.2 µM | 2.2 ± 0.3 µM | < 30% | < 30% |  |  | Sirt3 inhibition PSS [365 nm] (class) [1, 8]: u.i.; Sirt3 inhibition Δ (class) ([1]; thermal equilibrium (Δ)): u.i.
CC(C)(O)C#Cc1ccc(/N=N/c2cncc(C(N)=O)c2)cc1 [15 h] | 37.5 ± 5.2 µM | 15.2 ± 1.8 µM | < 30% | < 30% | 18% | 42% | decrease of Sirt2 inhibition upon 365 nm irradiation (factor) [2]: 2.5 fold

— paper PMC7496931, “Activation of Sirtuin 2 Inhibitors Employing Photoswitchable Geometry and Aqueous Solubility” (Chemmedchem, 2020)
